In the experiment the target is bacterial protein synthesis (S30 extract from quinolone-succeptable Streptococcus pneumoniae ATCC 46919). The experiment in a line: Translation assay, firefly luciferase reporter system with S30 Streptococcus pneumoniae extract. Format: biochemical. Conditions: cell-free S30 Streptococcus pneumoniae extract, luciferase mRNA; read-out: IC50, concentration which caused 50% inhibition of bacterial protein synthesis. The method, then: Bacterial protein synthesis inhibitory activity of the compounds and the aformentioned commercially-available antibacterials was determined by translation assays performed using the firefly luciferase reporter system described by Murray et al., (2001), “Staphylococcus aureus Cell Extract Transcription-Translation Assay: Firefly Luciferase Reporter System for Evaluating Protein Translation Inhibitors,” Antimicrob. Agents Chemother. 45(6): 1900-1904, replacing the Staphylococcus aureus S30 extract described therein with S30 Streptococcus pneumoniae extract from quinolone-succeptable Streptococcus pneumoniae ATCC 46919, and replacing plasmid coding for the luciferase gene with mRNA (encoding produced by in vitro transcription from the plasmid pAS10rbs3) which encoded the luciferase gene with an upstream Streptococcus pneumoniae promoter and Shine-Dalgarno site.
A general note: A reporter such as luciferase makes a cellular process visible.

Regarding `CC(=O)NC[C@H]1CN(c2ccc(N3CCOCC3)c(F)c2)C(=O)O1` [Linezolid], the IC50 is around 3000 nM.
